Measured values as given in ChEMBL document CHEMBL5465560, “Selectivity Literature for EUbOPEN Chemogenomic Library” (2024).

Tests used:
[1] = system: Epidermal growth factor receptor (Homo sapiens), P00533 [L858R,T790M]; conditions: at 10 µM
[2] = target: T1, Tyrosine-protein kinase Mer (Homo sapiens) (UniProt Q12866); conditions: at 10 µM
T1 sequence (whole entry): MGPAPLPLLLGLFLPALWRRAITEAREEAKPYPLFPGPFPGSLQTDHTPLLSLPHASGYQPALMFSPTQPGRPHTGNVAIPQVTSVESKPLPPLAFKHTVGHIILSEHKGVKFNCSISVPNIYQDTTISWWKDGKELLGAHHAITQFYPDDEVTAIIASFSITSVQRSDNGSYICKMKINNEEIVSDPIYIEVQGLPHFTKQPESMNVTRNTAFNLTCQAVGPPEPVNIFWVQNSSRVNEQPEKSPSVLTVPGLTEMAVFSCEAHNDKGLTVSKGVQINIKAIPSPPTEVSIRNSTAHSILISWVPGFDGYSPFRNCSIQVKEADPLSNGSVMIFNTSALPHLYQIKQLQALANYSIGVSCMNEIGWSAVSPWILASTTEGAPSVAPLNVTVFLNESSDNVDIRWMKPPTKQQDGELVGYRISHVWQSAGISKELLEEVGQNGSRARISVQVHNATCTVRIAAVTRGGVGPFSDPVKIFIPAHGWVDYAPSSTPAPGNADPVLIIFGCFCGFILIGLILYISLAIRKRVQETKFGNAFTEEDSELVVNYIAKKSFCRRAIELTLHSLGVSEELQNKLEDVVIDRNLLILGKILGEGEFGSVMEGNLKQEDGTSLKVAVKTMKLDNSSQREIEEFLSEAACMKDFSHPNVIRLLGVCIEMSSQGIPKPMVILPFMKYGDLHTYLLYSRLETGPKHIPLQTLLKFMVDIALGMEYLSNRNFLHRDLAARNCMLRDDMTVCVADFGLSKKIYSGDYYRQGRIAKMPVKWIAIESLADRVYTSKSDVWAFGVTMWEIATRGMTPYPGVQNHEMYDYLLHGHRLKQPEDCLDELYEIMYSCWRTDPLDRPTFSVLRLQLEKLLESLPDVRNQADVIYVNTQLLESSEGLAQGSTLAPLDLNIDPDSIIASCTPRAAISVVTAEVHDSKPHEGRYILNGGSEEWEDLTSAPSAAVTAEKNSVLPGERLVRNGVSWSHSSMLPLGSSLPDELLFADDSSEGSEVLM

[3] = target: T2, Dual specificity mitogen-activated protein kinase kinase 4 (Homo sapiens) (UniProt P45985); test: Selectivity interaction (ActivX KiNativ screen (kinase selectivity in THP-1 cell lysates)) EUB0000639a MAP2K4; format: subcellular; conditions: lysate, at 5 µM
T2 sequence (whole entry): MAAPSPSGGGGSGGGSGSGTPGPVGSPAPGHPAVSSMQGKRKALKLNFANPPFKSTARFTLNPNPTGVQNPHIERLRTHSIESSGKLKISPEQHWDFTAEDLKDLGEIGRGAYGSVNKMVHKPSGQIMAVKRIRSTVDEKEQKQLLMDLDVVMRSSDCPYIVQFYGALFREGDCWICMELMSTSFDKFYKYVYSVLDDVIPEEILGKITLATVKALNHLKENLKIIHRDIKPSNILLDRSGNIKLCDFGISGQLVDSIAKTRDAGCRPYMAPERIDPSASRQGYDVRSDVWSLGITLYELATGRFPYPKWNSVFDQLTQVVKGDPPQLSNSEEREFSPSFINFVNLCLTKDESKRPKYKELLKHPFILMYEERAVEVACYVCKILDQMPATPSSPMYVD

[4] = target: DNA (cytosine-5)-methyltransferase 1 (Homo sapiens) (UniProt P26358); test: Selectivity interaction (Transferase panel (protein, RNA, and DNA methyltransferases. and EP300 (acetyltransferase))) EUB0000270b DNMT1
[5] = target: Glycogen synthase kinase-3 beta (Homo sapiens, UniProt P49841); test: Selectivity interaction (Enzymatic assay) EUB0001199aCl GSK3B
[6] = target: Casein kinase I isoform epsilon (Homo sapiens, UniProt P49674); test: Selectivity interaction (Kinase panel (Z-LYTE Assay)) EUB0001632a CSNK1E; conditions: at 10 µM
[7] = target: Receptor tyrosine-protein kinase erbB-4 (Homo sapiens, UniProt Q15303); test: Selectivity interaction (Kinase panel (Z-LYTE Assay)) EUB0001632a ERBB4; conditions: at 10 µM
Ephrin type-A receptor 4 = Ephrin type-A receptor 4 (Homo sapiens, UniProt P54764); test: Selectivity interaction (KinomeScan (DiscoverX)) EUB0000092b EPHA4; conditions: at 10 µM
[8] = target: T1, Tyrosine-protein kinase Mer (Homo sapiens); test: Selectivity interaction (KinomeScan (DiscoverX)) EUB0000092b MERTK; conditions: at 10 µM
[9] = target: Tyrosine-protein kinase Yes (Homo sapiens) (UniProt P07947); test: Selectivity interaction (KinomeScan (DiscoverX)) EUB0000045b YES1
[10] = target: Serine/threonine-protein kinase N1 (Homo sapiens, UniProt Q16512); test: Selectivity interaction (KinomeScan (DiscoverX)) EUB0001619a PKN1; conditions: at 1 µM
[11] = target: Ribosomal protein S6 kinase alpha-2 (Homo sapiens) (UniProt Q15349); test: Selectivity interaction (KinomeScan (DiscoverX)) EUB0001619a RPS6KA2; conditions: at 1 µM
[12] = system: Mast/stem cell growth factor receptor Kit (Homo sapiens), P10721 [A829P]; test: (§1) Selectivity interaction (KinomeScan (DiscoverX)) EUB0000607a KIT; conditions: at 10 µM
[13] = system: Mast/stem cell growth factor receptor Kit (Homo sapiens), P10721 [D816H]; test: as §1; conditions: at 10 µM
[14] = system: Mast/stem cell growth factor receptor Kit (Homo sapiens), P10721 [D816V]; test: as §1; conditions: at 10 µM
[15] = system: Mast/stem cell growth factor receptor Kit (Homo sapiens), P10721 [L576P]; test: as §1; conditions: at 10 µM
[16] = system: Mast/stem cell growth factor receptor Kit (Homo sapiens), P10721 [V559D,T670I]; test: as §1; conditions: at 10 µM
[17] = system: Mast/stem cell growth factor receptor Kit (Homo sapiens), P10721 [V559D,V654A]; test: as §1; conditions: at 10 µM
[18] = system: Mast/stem cell growth factor receptor Kit (Homo sapiens), P10721 [V559D]; test: as §1; conditions: at 10 µM
[19] = target: Mast/stem cell growth factor receptor Kit (Homo sapiens, UniProt P10721); test: as §1; conditions: at 10 µM

Tyrosine-protein kinase Yes (Homo sapiens), sequence (P07947 2-543 limits assumed): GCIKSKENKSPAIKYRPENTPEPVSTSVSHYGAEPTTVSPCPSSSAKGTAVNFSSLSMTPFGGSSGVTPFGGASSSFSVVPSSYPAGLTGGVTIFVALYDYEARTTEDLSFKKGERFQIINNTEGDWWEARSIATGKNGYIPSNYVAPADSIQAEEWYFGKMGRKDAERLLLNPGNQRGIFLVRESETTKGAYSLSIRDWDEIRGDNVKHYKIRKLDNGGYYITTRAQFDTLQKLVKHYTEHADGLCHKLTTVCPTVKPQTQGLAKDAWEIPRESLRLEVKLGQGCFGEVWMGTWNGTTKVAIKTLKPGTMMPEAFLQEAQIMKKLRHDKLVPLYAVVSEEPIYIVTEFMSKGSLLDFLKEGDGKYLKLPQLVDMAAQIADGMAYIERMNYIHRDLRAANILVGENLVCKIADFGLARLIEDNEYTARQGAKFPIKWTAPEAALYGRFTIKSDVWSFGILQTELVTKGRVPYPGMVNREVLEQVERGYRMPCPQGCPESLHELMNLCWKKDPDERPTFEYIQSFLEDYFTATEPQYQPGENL
DNA (cytosine-5)-methyltransferase 1 (Homo sapiens), sequence (P26358 whole entry): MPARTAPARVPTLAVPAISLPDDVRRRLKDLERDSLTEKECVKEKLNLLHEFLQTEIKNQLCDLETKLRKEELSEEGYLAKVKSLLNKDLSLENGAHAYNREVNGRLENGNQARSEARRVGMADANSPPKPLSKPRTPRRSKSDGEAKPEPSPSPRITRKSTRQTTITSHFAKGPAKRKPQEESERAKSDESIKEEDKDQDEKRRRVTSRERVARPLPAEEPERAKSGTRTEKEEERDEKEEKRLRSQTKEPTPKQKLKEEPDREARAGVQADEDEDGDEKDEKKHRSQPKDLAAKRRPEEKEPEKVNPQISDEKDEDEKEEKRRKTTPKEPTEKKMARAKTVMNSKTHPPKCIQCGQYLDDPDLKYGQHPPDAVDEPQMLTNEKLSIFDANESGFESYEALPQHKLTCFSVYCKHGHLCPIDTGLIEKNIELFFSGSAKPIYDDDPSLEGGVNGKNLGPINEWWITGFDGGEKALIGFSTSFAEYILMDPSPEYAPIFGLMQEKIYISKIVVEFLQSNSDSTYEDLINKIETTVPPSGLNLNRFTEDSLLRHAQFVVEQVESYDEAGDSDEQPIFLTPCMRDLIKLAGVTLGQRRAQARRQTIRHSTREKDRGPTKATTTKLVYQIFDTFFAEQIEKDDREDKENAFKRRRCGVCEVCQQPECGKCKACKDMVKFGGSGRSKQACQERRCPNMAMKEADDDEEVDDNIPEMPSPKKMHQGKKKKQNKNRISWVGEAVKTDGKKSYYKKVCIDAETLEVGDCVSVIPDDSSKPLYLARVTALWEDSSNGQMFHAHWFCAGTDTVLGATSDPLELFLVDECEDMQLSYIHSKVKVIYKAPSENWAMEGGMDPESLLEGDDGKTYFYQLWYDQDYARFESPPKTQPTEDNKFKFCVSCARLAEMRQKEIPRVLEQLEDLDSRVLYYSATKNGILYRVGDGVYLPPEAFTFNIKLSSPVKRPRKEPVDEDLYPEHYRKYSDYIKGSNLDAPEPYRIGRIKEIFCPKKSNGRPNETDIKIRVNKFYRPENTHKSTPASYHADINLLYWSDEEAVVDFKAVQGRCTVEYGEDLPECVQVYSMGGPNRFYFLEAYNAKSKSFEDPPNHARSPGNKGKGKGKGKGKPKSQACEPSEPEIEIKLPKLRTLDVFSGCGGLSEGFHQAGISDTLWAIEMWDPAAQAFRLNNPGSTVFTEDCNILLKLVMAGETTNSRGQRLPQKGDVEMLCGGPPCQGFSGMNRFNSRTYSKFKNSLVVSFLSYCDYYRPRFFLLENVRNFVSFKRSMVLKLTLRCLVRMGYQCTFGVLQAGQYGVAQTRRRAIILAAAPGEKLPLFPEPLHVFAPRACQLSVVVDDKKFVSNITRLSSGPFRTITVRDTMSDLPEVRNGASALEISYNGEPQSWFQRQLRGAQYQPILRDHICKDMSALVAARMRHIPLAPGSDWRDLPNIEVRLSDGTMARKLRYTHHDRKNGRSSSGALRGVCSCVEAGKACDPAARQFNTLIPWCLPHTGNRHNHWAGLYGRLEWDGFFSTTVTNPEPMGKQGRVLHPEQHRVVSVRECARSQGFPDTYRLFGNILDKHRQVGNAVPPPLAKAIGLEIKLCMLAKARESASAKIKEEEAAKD
Serine/threonine-protein kinase N1, sequence (Q16512 2-942 limits assumed): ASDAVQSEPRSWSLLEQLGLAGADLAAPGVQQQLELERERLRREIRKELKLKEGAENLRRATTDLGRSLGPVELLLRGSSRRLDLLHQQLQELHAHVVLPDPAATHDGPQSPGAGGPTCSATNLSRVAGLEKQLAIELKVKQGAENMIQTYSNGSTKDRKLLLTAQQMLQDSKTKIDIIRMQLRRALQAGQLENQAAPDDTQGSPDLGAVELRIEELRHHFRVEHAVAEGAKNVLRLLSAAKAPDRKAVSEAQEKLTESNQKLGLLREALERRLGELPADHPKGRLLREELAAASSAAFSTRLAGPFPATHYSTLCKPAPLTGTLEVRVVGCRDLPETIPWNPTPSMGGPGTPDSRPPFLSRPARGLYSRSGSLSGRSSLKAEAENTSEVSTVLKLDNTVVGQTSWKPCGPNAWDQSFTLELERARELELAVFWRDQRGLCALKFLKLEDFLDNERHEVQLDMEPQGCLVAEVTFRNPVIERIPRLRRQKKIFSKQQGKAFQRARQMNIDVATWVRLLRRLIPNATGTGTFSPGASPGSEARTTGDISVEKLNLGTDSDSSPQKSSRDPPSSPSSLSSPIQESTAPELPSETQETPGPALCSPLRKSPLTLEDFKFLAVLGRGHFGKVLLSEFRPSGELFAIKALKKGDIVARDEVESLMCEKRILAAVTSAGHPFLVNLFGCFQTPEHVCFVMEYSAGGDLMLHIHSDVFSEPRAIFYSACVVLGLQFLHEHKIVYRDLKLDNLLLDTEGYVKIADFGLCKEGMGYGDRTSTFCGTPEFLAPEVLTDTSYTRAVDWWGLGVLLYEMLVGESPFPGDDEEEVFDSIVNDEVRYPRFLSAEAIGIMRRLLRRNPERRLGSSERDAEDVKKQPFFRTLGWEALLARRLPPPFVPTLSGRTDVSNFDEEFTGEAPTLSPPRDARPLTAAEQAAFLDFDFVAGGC
Mast/stem cell growth factor receptor Kit (Homo sapiens), P10721 [D816V], sequence (P10721 whole entry D816V): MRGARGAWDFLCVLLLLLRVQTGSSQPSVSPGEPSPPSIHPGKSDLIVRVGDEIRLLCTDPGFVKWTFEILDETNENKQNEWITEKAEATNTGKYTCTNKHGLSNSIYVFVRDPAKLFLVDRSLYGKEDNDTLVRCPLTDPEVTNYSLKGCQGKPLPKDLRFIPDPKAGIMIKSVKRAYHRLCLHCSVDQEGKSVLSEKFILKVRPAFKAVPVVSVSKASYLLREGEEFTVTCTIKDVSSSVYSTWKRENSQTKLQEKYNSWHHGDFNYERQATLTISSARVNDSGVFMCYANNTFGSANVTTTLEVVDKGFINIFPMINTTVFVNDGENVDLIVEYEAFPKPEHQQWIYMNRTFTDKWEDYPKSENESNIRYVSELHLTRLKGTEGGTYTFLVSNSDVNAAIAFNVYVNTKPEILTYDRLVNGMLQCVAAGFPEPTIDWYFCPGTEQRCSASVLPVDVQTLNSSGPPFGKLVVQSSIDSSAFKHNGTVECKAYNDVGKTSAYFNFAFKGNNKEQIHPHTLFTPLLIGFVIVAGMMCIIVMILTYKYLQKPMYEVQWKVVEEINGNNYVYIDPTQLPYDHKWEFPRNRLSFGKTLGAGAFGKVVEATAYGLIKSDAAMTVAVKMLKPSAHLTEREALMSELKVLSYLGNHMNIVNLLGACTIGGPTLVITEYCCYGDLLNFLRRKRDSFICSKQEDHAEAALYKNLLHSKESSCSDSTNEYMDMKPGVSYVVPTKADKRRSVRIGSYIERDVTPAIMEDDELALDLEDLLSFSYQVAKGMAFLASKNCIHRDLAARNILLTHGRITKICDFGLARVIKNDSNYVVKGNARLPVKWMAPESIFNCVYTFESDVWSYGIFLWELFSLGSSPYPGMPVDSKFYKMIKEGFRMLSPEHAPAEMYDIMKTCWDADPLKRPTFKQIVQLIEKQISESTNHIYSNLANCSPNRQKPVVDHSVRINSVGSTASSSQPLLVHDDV
Mast/stem cell growth factor receptor Kit (Homo sapiens), P10721 [A829P], sequence (P10721 whole entry A829P): as the sequence (P10721 whole entry D816V) above, with V816D, A829P counted along it

## Cc1cc([C@@H](C)Nc2ccccc2C(=O)O)c2nc(N3CCOCC3)cc(=O)n2c1 [AZD-6482]
[1]
  % of control: 99%
[2]
  % of control: 100%

## CC[C@@H]1[C@H](F)C(=O)N[C@@H]1COc1nccc2cc(C(N)=O)c(OC)cc12 [ZIMLOVISERTIB]
[3]
  % of inhibition: 29.6%

## Cc1cc(CN)cc(C)c1-c1ncn(C)c1-c1cncn1C
[4]; at 1 µM
  % activity: > 90%
[4]; at 10 µM
  % activity: > 80%

## CN1Cc2nccc(-c3cn(C)nc3-c3ccc(F)cc3)c2C1=O
[5]
  IC50: 10 µM

## Cn1cc(-n2cnc3c(NCc4nc5cc(Cl)c(Cl)cc5[nH]4)nc(N4CCOCC4)nc32)cn1
[6]
  % of control: 48.9%
[7]
  % of control: -13.3%

## CCC(=O)N1CCN(c2ccc(-n3c(=O)ccc4cnc5ccc(-c6cnc7ccccc7c6)cc5c43)cc2C(F)(F)F)CC1
Ephrin type-A receptor 4
  % of control: 90%
[8]
  % of control: 53%

## C=CC(=O)Nc1cc(-n2c(=O)ccc3cnc4ccc(-c5ccc(NS(C)(=O)=O)cc5)cc4c32)ccc1C
[9]; at 1 µM
  % of control: 74%
[9]; at 10 µM
  % of control: 100%

## N#Cc1cccc(-c2c[nH]c3ncnc(N4CCOCC4)c23)c1
[10]
  % of control: 62%
[11]
  % of control: 82%

## CNC(=O)Nc1ccc(-c2nc(N3CC4CCC(C3)O4)c3cnn(C4CCC5(CC4)OCCO5)c3n2)cc1
[12]
  % of control: 89%
[13]
  % of control: 86%
[14]
  % of control: 82%
[15]
  % of control: 85%
[16]
  % of control: 100%
[17]
  % of control: 100%
[18]
  % of control: 85%
[19]
  % of control: 91%
